Tests used:
[1] = target: GSPT1 (Homo sapiens (Human), UniProt P15170+Q96SW2); assay: Western blot, substrate protein expression in hPBMC: GSPT1; format: cell-based; conditions: hPBMC, compound 500 nM, 24 hours, Western blot
Method: (§1) The effect of the compounds of the present disclosure on the expression of target proteins in cells was detected using conventional Western blot analysis.
(§2) Human peripheral blood mononuclear cells (hPBMCs) at a density of 1×10^6 cells/mL were thawed according to the PBMC Recovery Protocol (Milecell Biotechnologies Inc, Shanghai). […] After 24 hours of compounds treatment, cells were harvested and lysed in RIPA protein lysate containing phosphatase inhibitors on ice for 30-60 min, followed by centrifugation. The supernatant was aspirated as the extracted total cell protein. The protein concentration of the supernatant was determined using the conventional BCA (Bicinchoninic Acid) assay. The supernatant was then mixed with 4× SDS sample loading buffer, denatured at 95° C. for 5 minutes, and then subjected to SDS-PAGE electrophoresis on a polyacrylamide gel. Proteins were then transferred to a nitrocellulose (NC) membrane, blocked at room temperature for 1-2 h, and processed for antibody incubation and detection according to the manufacturer's instructions (Cell Signaling Technology).
(§3) Half-Maximal Degradation Concentration value (the drug concentration required for degrading proteins by 50%, abbreviated as DC50) reads method: comparing the grayscale values of Western blot bands from drug-treated samples (protein degrader compounds) with those from blank (DMSO-treated) controls, and identifying the drug concentration range at which the grayscale value is half that of the DMSO-treated control bands.
(§4) DC50 values can be calculated using ImageJ software to measure grayscale values of Western blot bands from drug-treated samples. The relationship curve between drug concentration and grayscale values is fitted to estimate the drug concentration corresponding to half the grayscale value.
(§5) Target protein remaining (%) refers to the percentage of target protein remaining in hPBMC cells after treatment with protein degrader compounds.
(§6) Calculation method for protein remaining (%): Use ImageJ software to measure grayscale values of Western blot bands from drug (protein degrader)-treated samples. The grayscale value of drug-treated bands is divided by that of internal control protein bands, and the resulting quotient is normalized to obtain the relative percentage of remaining target protein after protein degrader treatment.
(§7) Target protein degradation rate (%)=100%-target protein remaining (%).

[2] = target: IKZF3 (Homo sapiens (Human), UniProt Q96SW2+Q9UKT9); assay: Western blot, substrate protein expression in hPBMC: IKZF3; format: cell-based; conditions: for substrate protein remaining % IKZF3: hPBMC, compound 500 nM, 24 hours, Western blot
Method: as §1, §2, §3, §4, §5, §6, §7

[3] = target: IKZF1 (Homo sapiens (Human), UniProt Q13422+Q96SW2); assay: Western blot, substrate protein expression in hPBMC: IKZF1; format: cell-based; conditions: for substrate protein remaining % IKZF1: hPBMC, compound 500 nM, 24 hours, Western blot
Method: as §1, §2, §3, §4, §5, §6, §7

[4] = target: human Cereblon WT GST-tagged protein (Homo sapiens (Human), UniProt Q96SW2); assay: CRBN-binding affinity, HTRF (CEREBLON BINDING kit, CISBIO); conditions: HTRF inhibitory activity
Method: I. Determination of CRBN-binding affinity of compounds of the present disclosure:
The CEREBLON BINDING kits (specification: 10,000 tests; product number: Catalog #64BDCRBNPEH; CISBIO company) was used to determine the CRBN binding ability of the compounds to be tested through a HTRF method (homogeneous time-resolved fluorescence). The specific methods are as follows: • 1. […] Then, 2.5 μL of human Cereblon WT GST-tagged protein solution was added to each well. Finally, 5 μL of the thoroughly mixed Thalidomide-Red reagent and GST Eu antibody working solution were added to each of the aforementioned wells. […] The blank control wells were sequentially added with 2.5 μL of diluent #9 (1X) solution, 2.5 μL of PROTAC binding buffer, and 5 μL of thoroughly mixed Thalidomide-Red reagent and GST Eu antibody working solution. • 4.
The corresponding CRBN binding inhibition rate was calculated using the following method: […]
OD 620 nmcompound is the absorbance value of each well of the compounds to be tested of the present disclosure at an emission wavelength of 620 nm. […] OD 620 nmcontrol is the absorbance value of the blank control well at an emission wavelength of 620 nm. […] OD 620 nmStd0 is the absorbance value of the solvent control well at an emission wavelength of 620 nm.

GSPT1, sequence (P15170 whole entry): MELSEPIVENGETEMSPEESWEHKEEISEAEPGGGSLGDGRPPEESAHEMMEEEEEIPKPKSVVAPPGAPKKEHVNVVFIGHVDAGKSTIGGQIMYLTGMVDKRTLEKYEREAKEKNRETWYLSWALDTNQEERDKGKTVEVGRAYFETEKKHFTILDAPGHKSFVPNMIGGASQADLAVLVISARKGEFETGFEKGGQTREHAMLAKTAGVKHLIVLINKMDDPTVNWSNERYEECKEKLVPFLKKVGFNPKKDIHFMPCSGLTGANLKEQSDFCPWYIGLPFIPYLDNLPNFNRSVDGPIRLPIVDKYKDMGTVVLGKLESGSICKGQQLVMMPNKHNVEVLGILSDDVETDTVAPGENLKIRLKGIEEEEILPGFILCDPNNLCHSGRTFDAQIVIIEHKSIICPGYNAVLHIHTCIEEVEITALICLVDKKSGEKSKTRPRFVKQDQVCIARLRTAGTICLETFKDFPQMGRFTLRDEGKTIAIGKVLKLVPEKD
GSPT1, sequence (Q96SW2 whole entry): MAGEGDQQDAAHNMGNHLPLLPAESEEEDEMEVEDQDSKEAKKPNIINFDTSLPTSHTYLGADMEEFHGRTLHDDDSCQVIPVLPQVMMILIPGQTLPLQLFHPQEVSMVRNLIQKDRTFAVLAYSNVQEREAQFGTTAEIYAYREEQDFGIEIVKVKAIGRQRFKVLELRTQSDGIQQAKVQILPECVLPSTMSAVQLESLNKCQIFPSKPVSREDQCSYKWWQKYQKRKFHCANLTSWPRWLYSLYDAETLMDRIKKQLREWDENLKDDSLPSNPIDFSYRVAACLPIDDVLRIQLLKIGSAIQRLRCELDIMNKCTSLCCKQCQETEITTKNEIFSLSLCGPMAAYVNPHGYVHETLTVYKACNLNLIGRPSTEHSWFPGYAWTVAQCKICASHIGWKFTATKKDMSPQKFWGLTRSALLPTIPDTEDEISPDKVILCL
GSPT1, sequence (Q16531 whole entry partner): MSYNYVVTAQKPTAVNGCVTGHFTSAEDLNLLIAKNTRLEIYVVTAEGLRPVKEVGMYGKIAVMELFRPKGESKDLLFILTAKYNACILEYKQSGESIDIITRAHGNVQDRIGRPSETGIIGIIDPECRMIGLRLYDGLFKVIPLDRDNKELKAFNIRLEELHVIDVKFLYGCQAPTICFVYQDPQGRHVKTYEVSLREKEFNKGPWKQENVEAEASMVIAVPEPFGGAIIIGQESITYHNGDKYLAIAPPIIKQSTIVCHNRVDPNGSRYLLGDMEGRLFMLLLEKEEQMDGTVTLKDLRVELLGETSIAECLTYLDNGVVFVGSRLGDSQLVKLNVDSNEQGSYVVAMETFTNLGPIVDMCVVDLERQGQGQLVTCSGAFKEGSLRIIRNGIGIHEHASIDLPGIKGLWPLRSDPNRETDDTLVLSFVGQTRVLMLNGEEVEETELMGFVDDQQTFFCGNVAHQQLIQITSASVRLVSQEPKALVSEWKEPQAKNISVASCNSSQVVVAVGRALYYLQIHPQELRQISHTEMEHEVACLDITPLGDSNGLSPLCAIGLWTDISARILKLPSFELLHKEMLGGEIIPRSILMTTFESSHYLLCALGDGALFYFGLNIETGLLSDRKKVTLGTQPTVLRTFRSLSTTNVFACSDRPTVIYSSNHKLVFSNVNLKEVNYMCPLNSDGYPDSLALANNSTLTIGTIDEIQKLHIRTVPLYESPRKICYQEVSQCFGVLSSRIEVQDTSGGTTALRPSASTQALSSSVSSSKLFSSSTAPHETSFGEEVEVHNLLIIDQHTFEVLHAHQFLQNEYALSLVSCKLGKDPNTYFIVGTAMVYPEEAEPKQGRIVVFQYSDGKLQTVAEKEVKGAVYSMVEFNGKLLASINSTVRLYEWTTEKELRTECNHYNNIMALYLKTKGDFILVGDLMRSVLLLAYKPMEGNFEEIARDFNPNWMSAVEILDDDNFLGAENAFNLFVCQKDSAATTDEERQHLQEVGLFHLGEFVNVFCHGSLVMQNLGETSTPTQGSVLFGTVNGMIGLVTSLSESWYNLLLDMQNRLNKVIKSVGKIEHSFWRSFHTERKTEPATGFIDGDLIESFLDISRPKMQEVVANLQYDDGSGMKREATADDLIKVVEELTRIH
human Cereblon WT GST-tagged protein, sequence (Q96SW2 whole entry): as the sequence (Q96SW2 whole entry) above
IKZF1, sequence (Q13422 whole entry): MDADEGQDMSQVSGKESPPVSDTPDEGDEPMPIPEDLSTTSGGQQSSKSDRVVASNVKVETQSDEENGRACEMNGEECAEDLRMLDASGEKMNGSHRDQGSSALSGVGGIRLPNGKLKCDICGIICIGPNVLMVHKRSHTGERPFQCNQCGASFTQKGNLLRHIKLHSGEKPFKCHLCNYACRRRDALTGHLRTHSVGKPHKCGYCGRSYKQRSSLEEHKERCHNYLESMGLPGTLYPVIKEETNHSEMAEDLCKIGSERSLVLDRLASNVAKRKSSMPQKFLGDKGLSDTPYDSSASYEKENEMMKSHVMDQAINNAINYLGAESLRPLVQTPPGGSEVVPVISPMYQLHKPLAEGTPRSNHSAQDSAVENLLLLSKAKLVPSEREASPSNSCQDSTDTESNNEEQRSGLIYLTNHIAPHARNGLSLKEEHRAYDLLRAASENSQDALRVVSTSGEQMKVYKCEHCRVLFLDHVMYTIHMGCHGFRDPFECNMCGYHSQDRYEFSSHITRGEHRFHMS
IKZF1, sequence (Q96SW2 whole entry): as the sequence (Q96SW2 whole entry) above
IKZF1, sequence (Q16531 whole entry partner): as the sequence (Q16531 whole entry partner) above
IKZF3, sequence (Q9UKT9 whole entry): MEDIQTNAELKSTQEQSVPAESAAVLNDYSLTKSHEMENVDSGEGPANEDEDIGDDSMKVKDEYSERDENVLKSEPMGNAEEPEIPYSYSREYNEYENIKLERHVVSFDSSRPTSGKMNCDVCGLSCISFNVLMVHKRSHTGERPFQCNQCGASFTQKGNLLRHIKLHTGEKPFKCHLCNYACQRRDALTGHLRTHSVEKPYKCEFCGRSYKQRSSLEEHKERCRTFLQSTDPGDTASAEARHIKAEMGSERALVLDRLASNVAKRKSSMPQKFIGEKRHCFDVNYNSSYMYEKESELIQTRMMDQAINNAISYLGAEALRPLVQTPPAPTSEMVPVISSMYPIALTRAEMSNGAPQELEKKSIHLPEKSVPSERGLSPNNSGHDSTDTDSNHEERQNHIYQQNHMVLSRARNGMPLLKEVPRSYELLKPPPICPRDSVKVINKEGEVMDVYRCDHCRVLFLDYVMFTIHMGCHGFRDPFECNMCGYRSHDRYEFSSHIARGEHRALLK
IKZF3, sequence (Q96SW2 whole entry): as the sequence (Q96SW2 whole entry) above
IKZF3, sequence (Q16531 whole entry partner): as the sequence (Q16531 whole entry partner) above

IC50 [4] [nM]	SMILES	substrate protein remaining % GSPT1 [1]	substrate protein remaining % IKZF3 [2]	substrate protein remaining % IKZF1 [3]	other results
500 to 1000	O=C1CCC(N2Cc3cc(C(=O)N4CCN(C5c6cc(Cl)ccc6-c6ccc(Cl)cc65)CC4)ccc3C2=O)C(=O)N1 (stereo not drawn) [GT-06069, 3-(5-(4-(2,7-dichloro-9H-fluoren-9-yl)piperazine-1-carbonyl)-1-oxoisoindolin-2-yl)piperidine-2,6-dione]				
< 500	O=C1CCC(N2Cc3c(ccc(C4=CCN(C(c5ccccc5)c5ccccc5)CC4)c3F)C2=O)C(=O)N1 (stereo not drawn) [GT-06072, 3-(5-(1-benzhydryl-1,2,3,6-tetrahydropyridin-4-yl)-4-fluoro-1-oxoisoindolin-2-yl)piperidine-2,6-dione]				
< 500	O=C1CCC(N2Cc3cc(CN4CCN(C(c5ccccc5)c5cccnc5)CC4)cc(F)c3C2=O)C(=O)N1 (stereo not drawn) [GT-06111, 3-(7-fluoro-1-oxo-5-((4-(phenyl(pyridin-3-yl)methyl)piperazin-1-yl)methyl)isoindolin-2-yl)piperidine-2,6-dione]				
500 to 1000	O=C1CCC(N2Cc3c(CN4CCN(C(c5ccccc5)c5cccnc5)CC4)cccc3C2=O)C(=O)N1 (stereo not drawn) [GT-06113, 3-(1-oxo-4-((4-(phenyl(pyridin-3-yl)methyl)piperazin-1-yl)methyl)isoindolin-2-yl)piperidine-2,6-dione]				
< 500	O=C1CCC(N2Cc3cc(CN4CCN(C(c5ccccc5)c5ccncc5)CC4)cc(F)c3C2=O)C(=O)N1 (stereo not drawn) [GT-06135, 3-(7-fluoro-1-oxo-5-((4-(phenyl(pyridin-4-yl)methyl)piperazin-1-yl)methyl)isoindolin-2-yl)piperidine-2,6-dione]				
< 500	O=C1CCC(N2Cc3c(ccc(C4CCN(C(c5ccccc5)c5ccccc5)CC4)c3F)C2=O)C(=O)N1 (stereo not drawn) [GT-06136, 3-(5-(1-benzhydrylpiperidin-4-yl)-4-fluoro-1-oxoisoindolin-2-yl)piperidine-2,6-dione]				
500 to 1000	O=C1CCC(N2Cc3cc(C(=O)N4CCN(C(c5ccccc5)c5ccncc5)CC4)ccc3C2=O)C(=O)N1 (stereo not drawn) [GT-06144, 3-(1-oxo-5-(4-(phenyl(pyridin-4-yl)methyl)piperazine-1-carbonyl)isoindolin-2-yl)piperidine-2,6-dione]				
500 to 1000	O=C1CCC(N2Cc3ccc(C(=O)N4CCN(C(c5cccc(F)c5)c5cccc(F)c5)CC4)cc3C2=O)C(=O)N1 (stereo not drawn) [GT-06149, 3-(6-(4-(bis(3-fluorophenyl)methyl)piperazine-1-carbonyl)-1-oxoisoindolin-2-yl)piperidine-2,6-dione]				
500 to 1000	O=C1CCC(N2Cc3cccc(C(=O)N4CCN(C(c5cccc(F)c5)c5cccc(F)c5)CC4)c3C2=O)C(=O)N1 (stereo not drawn) [GT-06150, 3-(7-(4-(bis(3-fluorophenyl)methyl)piperazine-1-carbonyl)-1-oxoisoindolin-2-yl)piperidine-2,6-dione]				
< 500	O=C1CCC(N2Cc3cc(C4CCN(C(c5ccccc5)c5ccccc5)CC4)cc(F)c3C2=O)C(=O)N1 (stereo not drawn) [GT-06198, 3-(5-(1-benzhydrylpiperidin-4-yl)-7-fluoro-1-oxoisoindolin-2-yl)piperidine-2,6-dione]				
1000 to 1900	O=C1CCC(N2Cc3cc(NC4CCC(N(c5ccccc5)c5ccccc5)CC4)ccc3C2=O)C(=O)N1 (stereo not drawn) [GT-06806, 3-(5-((4-(diphenylamino)cyclohexyl)amino)-1-oxoisoindolin-2-yl)piperidine-2,6-dione]				

Continued, compound first:

SMILES	IC50 [4] [nM]	substrate protein remaining % GSPT1 [1]	substrate protein remaining % IKZF3 [2]	substrate protein remaining % IKZF1 [3]	other results
O=C1CCC(N2Cc3c(ccc(CN4C5CC4CN(C(c4ccccc4)c4ccccc4)C5)c3F)C2=O)C(=O)N1 (stereo not drawn) [GT-03572, 3-(5-((3-benzhydryl-3,6-diazabicyclo[3.1.1]heptan-6-yl)methyl)-4-fluoro-1-oxoisoindolin-2-yl)piperidine-2,6-dione]		A (A represents 0% ≤ substrate protein remaining % ≤ 50%)	A (A represents 0% ≤ substrate protein remaining % ≤ 50%)	B (B represents substrate protein remaining % > 50%)	
O=C1CCC(N2Cc3c(CN4CCN(C(c5ccc(Cl)cc5)c5ccc(Cl)cc5)CC4)cccc3C2=O)C(=O)N1 (stereo not drawn) [GT-03648, 3-(4-((4-(bis(4-chlorophenyl)methyl)piperazin-1-yl)methyl)-1-oxoisoindolin-2-yl)piperidine-2,6-dione]		A (A represents 0% ≤ substrate protein remaining % ≤ 50%)	B (B represents substrate protein remaining % > 50%)	B (B represents substrate protein remaining % > 50%)	
O=C1CCC(N2Cc3cc(CN4CCN(C(c5cccnc5)c5cccnc5)CC4)c(F)cc3C2=O)C(=O)N1 (stereo not drawn) [GT-04386, 3-(5-((4-(di(pyridin-3-yl)methyl)piperazin-1-yl)methyl)-6-fluoro-1-oxoisoindolin-2-yl)piperidine-2,6-dione]		A (A represents 0% ≤ substrate protein remaining % ≤ 50%)	B (B represents substrate protein remaining % > 50%)	B (B represents substrate protein remaining % > 50%)	
O=C1CCC(N2C(=O)c3ccc(CN4CCN(C(c5ccccc5)c5ccccc5)CC4)cc3C2=O)C(=O)N1 (stereo not drawn) [GT-05690, 5-((4-benzhydrylpiperazin-1-yl)methyl)-2-(2,6-dioxopiperidin-3-yl) isoindoline-1,3-dione]		A (A represents 0% ≤ substrate protein remaining % ≤ 50%)	A (A represents 0% ≤ substrate protein remaining % ≤ 50%)	A (A represents 0% ≤ substrate protein remaining % ≤ 50%)	concentration at which IKZF3 protein was significantly degraded (Western blot, FIG. 1) ([2]; hPBMCs): < 500 nM; concentration at which IKZF1 protein was significantly degraded (Western blot, FIG. 1) ([3]; hPBMCs): < 500 nM
O=C1CCC(N2C(=O)c3ccc(CN4CCN(C(c5ccccc5)c5ccccn5)CC4)cc3C2=O)C(=O)N1 (stereo not drawn) [GT-05723, 2-(2,6-dioxopiperidin-3-yl)-5-((4-(phenyl(pyridin-2-yl)methyl)piperazin-1-yl)methyl) isoindoline-1,3-dione]		A (A represents 0% ≤ substrate protein remaining % ≤ 50%)	B (B represents substrate protein remaining % > 50%)	B (B represents substrate protein remaining % > 50%)	
O=C1CCC(N2C(=O)c3ccc(CN4CCN(C(c5ccc(F)cc5)c5ccc(F)cc5)CC4)cc3C2=O)C(=O)N1 (stereo not drawn) [GT-05726, 5-((4-(bis(4-fluorophenyl)methyl)piperazin-1-yl)methyl)-2-(2,6-dioxopiperidin-3-yl) isoindoline-1,3-dione]		A (A represents 0% ≤ substrate protein remaining % ≤ 50%)	A (A represents 0% ≤ substrate protein remaining % ≤ 50%)	B (B represents substrate protein remaining % > 50%)	
O=C1CCC(N2C(=O)c3ccc(CN4CCN(C(c5ccc(Cl)cc5)c5ccc(Cl)cc5)CC4)cc3C2=O)C(=O)N1 (stereo not drawn) [GT-05727, 5-((4-(bis(4-chlorophenyl)methyl)piperazin-1-yl)methyl)-2-(2,6-dioxopiperidin-3-yl) isoindoline-1,3-dione]		A (A represents 0% ≤ substrate protein remaining % ≤ 50%)	A (A represents 0% ≤ substrate protein remaining % ≤ 50%)	B (B represents substrate protein remaining % > 50%)	
O=C1CCC(N2Cc3cc(CN4CCN(C(c5ccccc5)c5ccccc5)CC4C(F)(F)F)cc(F)c3C2=O)C(=O)N1 (stereo not drawn) [GT-06098, 3-(5-((4-benzhydryl-2-(trifluoromethyl)piperazin-1-yl)methyl)-7-fluoro-1-oxoisoindolin-2-yl)piperidine-2,6-dione]	< 500				
O=C1CCC(N2Cc3ccc(CN4CCN(C(c5cccc(F)c5)c5cccc(F)c5)CC4)cc3C2=O)C(=O)N1 (stereo not drawn) [GT-06116, 3-(6-((4-(bis(3-fluorophenyl)methyl)piperazin-1-yl)methyl)-1-oxoisoindolin-2-yl)piperidine-2,6-dione]	500 to 1000				
